From ChEMBL document CHEMBL3526109 (Drug Metab Dispos, 2011)

What was measured:
Details in all cases: in vivo
Plasma [1] = assay: Drug level in human plasma assessed as compound formation treated with [14C]brivanib alaninate at 800 mg, po administered as single dose via gavage measured after 8 hrs by HPLC analysis; format: ADME, organism-based
[2] = Drug excretion in cynomolgus monkey feces treated with [14C]brivanib alaninate at 10 mg/kg, po administered as single dose via gavage by HPLC analysis; format: ADME, organism-based, Macaca fascicularis
Plasma [3] = assay: Drug level in cynomolgus monkey plasma assessed as compound formation treated with [14C]brivanib alaninate at 10 mg/kg, po administered as single dose via gavage measured after 4 hrs by HPLC analysis; format: ADME, organism-based, Macaca fascicularis
Plasma [4] = assay: Drug level in cynomolgus monkey plasma assessed as compound formation treated with [14C]brivanib alaninate at 10 mg/kg, po administered as single dose via gavage measured after 2 hrs by HPLC analysis; format: ADME, organism-based, Macaca fascicularis
Plasma [5] = assay: Drug level in cynomolgus monkey plasma assessed as compound formation treated with [14C]brivanib alaninate at 10 mg/kg, po administered as single dose via gavage measured after 1 hr by HPLC analysis; format: ADME, organism-based, Macaca fascicularis
[6] = Drug level in bile duct-cannulated rat bile treated with [14C]brivanib alaninate at 100 mg/kg, po administered as single dose via gavage by mass spectrometry; format: ADME, organism-based
Plasma [7] = assay: Drug level in cynomolgus monkey plasma assessed as compound formation treated with [14C]brivanib alaninate at 10 mg/kg, po administered as single dose via gavage measured after 6 hrs by HPLC analysis; format: ADME, organism-based, Macaca fascicularis
Plasma [8] = assay: Drug level in human plasma assessed as compound formation treated with [14C]brivanib alaninate at 800 mg, po administered as single dose via gavage measured after 4 hrs by HPLC analysis; format: ADME, organism-based
Plasma [9] = assay: Drug level in human plasma assessed as compound formation treated with [14C]brivanib alaninate at 800 mg, po administered as single dose via gavage measured after 12 hrs by HPLC analysis; format: ADME, organism-based
[10] = Drug excretion in Sprague-Dawley rat urine treated with [14C]brivanib alaninate at 100 mg/kg, po administered as single dose via gavage by HPLC analysis; format: ADME, organism-based
Plasma [11] = assay: Drug level in cynomolgus monkey plasma assessed as compound formation treated with [14C]brivanib alaninate at 10 mg/kg, po administered as single dose via gavage measured after 12 hrs by HPLC analysis; format: ADME, organism-based, Macaca fascicularis
Plasma [12] = assay: Drug level in Sprague-Dawley rat plasma assessed as compound formation treated with [14C]brivanib alaninate at 100 mg/kg, po administered as single dose via gavage measured after 6 hrs by mass spectrometry; format: ADME, organism-based
[13] = Drug excretion in human urine treated with [14C]brivanib alaninate at 800 mg, po administered as single dose […] by HPLC analysis; format: ADME, organism-based
Plasma [14] = assay: Drug level in human plasma assessed as compound formation treated with [14C]brivanib alaninate at 800 mg, po administered as single dose via gavage measured after 1 hr by HPLC analysis; format: ADME, organism-based
Plasma [15] = assay: Drug level in Sprague-Dawley rat plasma assessed as compound formation treated with [14C]brivanib alaninate at 100 mg/kg, po administered as single dose via gavage measured after 1 hr by mass spectrometry; format: ADME, organism-based
[16] = Drug excretion in Sprague-Dawley rat feces treated with [14C]brivanib alaninate at 100 mg/kg, po administered as single dose via gavage by HPLC analysis; format: ADME, organism-based
[17] = Drug excretion in human feces treated with [14C]brivanib alaninate at 800 mg, po administered as single dose […] by HPLC analysis; format: ADME, organism-based
[18] = Drug excretion in cynomolgus monkey urine treated with [14C]brivanib alaninate at 10 mg/kg, po administered as single dose via gavage by HPLC analysis; format: ADME, organism-based, Macaca fascicularis
Plasma [19] = assay: Drug level in Sprague-Dawley rat plasma assessed as compound formation treated with [14C]brivanib alaninate at 100 mg/kg, po administered as single dose via gavage measured after 2 hrs by mass spectrometry; format: ADME, organism-based
[20] = Drug excretion in bile duct-cannulated cynomolgus monkey bile treated with [14C]brivanib alaninate at 10 mg/kg, po administered as single dose via gavage by HPLC analysis; format: ADME, organism-based, Macaca fascicularis
Plasma [21] = assay: Drug level in human plasma assessed as compound formation treated with [14C]brivanib alaninate at 800 mg, po administered as single dose via gavage measured after 2 hrs by HPLC analysis; format: ADME, organism-based
[22] = Drug level in cynomolgus monkey urine treated with [14C]brivanib alaninate at 10 mg/kg, po administered as single dose via gavage by mass spectrometry; format: ADME, organism-based, Macaca fascicularis
[23] = Drug excretion in bile duct-cannulated rat bile treated with [14C]brivanib alaninate at 100 mg/kg, po administered as single dose via gavage by HPLC analysis; format: ADME, organism-based
Plasma [24] = assay: Drug level in Sprague-Dawley rat plasma assessed as compound formation treated with [14C]brivanib alaninate at 100 mg/kg, po administered as single dose via gavage measured after 2 hrs by HPLC analysis; format: ADME, organism-based
Rattus norvegicus [25] = assay: Drug uptake in Sprague-Dawley rat plasma treated with [14C]brivanib alaninate assessed as AUC (0 to 6 hrs) of total radio activity at 100 mg/kg, po administered as single oral dose by HPLC analysis; format: ADME, organism-based
Homo sapiens [26] = assay: AUC (0 to 12 hrs) human plasma treated with [14C]brivanib alaninate at 800 mg, po administered as single oral dose by HPLC analysis; format: ADME, organism-based
Cynomolgus monkey [27] = assay: Drug uptake in cynomolgus monkey plasma treated with [14C]brivanib alaninate assessed as AUC (0 to 12 hrs) of total radio activity at 10 mg/kg, po administered as single oral dose by HPLC analysis; format: ADME, organism-based, Macaca fascicularis
Rattus norvegicus [28] = assay: AUC (0 to 6 hrs) Sprague-Dawley rat plasma treated with [14C]brivanib alaninate at 100 mg/kg, po administered as single oral dose by HPLC analysis; format: ADME, organism-based
Plasma [29] = assay: Drug level in Sprague-Dawley rat plasma assessed as compound formation treated with [14C]brivanib alaninate at 100 mg/kg, po administered as single dose via gavage measured after 1 hr by HPLC analysis; format: ADME, organism-based
Plasma [30] = assay: Drug level in Sprague-Dawley rat plasma assessed as compound formation treated with [14C]brivanib alaninate at 100 mg/kg, po administered as single dose via gavage measured after 6 hrs by HPLC analysis; format: ADME, organism-based
Homo sapiens [31] = assay: Drug uptake in human plasma treated with [14C]brivanib alaninate assessed as AUC (0 to 12 hrs) of total radio activity at 800 mg, po administered as single oral dose by HPLC analysis; format: ADME, organism-based
Cynomolgus monkey [32] = assay: AUC (0 to 12 hrs) cynomolgus monkey plasma treated with [14C]brivanib alaninate at 10 mg/kg, po administered as single oral dose by HPLC analysis; format: ADME, organism-based, Macaca fascicularis
[33] = Drug level in Sprague-Dawley rat urine treated with [14C]brivanib alaninate at 100 mg/kg, po administered as single dose via gavage by mass spectrometry; format: ADME, organism-based

Row | SMILES | Compound recovery (Plasma [1]) | Compound recovery [2] | Compound recovery (Plasma [3]) [%] | Compound recovery (Plasma [4]) [%] | Compound recovery (Plasma [5]) [%] | Compound recovery (Plasma [7]) [%] | Compound recovery (Plasma [8]) | Compound recovery (Plasma [9]) | Compound recovery [10] | Compound recovery (Plasma [11]) | Compound recovery [13] [%] | Compound recovery (Plasma [14]) [%] | Compound recovery [16] | Compound recovery [17] | Compound recovery [18] [%] | Compound recovery [20] [%] | Compound recovery (Plasma [21]) [%] | Compound recovery [23] [%] | further results
1 | Cc1cc2c(F)c(Oc3ncnn4cc(OC[C@@H](C)O[C@@H]5O[C@H](C(=O)O)[C@@H](O)[C@H](O)[C@H]5O)c(C)c34)ccc2[nH]1 | metabolite_not_detected | metabolite_not_detected | 1.9 | 2.2 | 7.2 | 0.9 | metabolite_not_detected | metabolite_not_detected | metabolite_not_detected | metabolite_not_detected | 1.1 | 2.6 | metabolite_not_detected | metabolite_not_detected | 0.3 | 0.6 | 2.3 | – | Compound recovery [6]: metabolite_detected; Compound recovery (Plasma [12]): metabolite_detected; Compound recovery (Plasma [15]): metabolite_detected; Compound recovery (Plasma [19]): metabolite_detected
2 | Cc1c(OC[C@@H](C)OS(=O)(=O)O)cn2ncnc(Oc3ccc4[nH]c(C(=O)O)cc4c3F)c12 | – | 4% | – | – | – | – | – | – | metabolite_not_detected | – | 2.4 | – | 5.7% | 26.6% | – | 4.9 | – | 2.5 | Compound recovery [22]: metabolite_detected
3 | Cc1c(OC[C@@H](C)OS(=O)(=O)O)cn2ncnc(Oc3ccc4[nH]c(CO)cc4c3F)c12 | 1.7% | 2.4% | 3.5 | 1.5 | 3 | 7.9 | 3.6% | 4.1% | – | 3% | 3.6 | 0.7 | 4.8% | 8.3% | 4.9 | 10.3 | 2.9 | 1 | Compound recovery (Plasma [24]): 3.1%; AUC metabolite/AUC radiolabel (Rattus norvegicus [25]): 3.9%; AUC (Homo sapiens [26]): 1202.5 ugequiv/l.hr; AUC metabolite/AUC radiolabel (Cynomolgus monkey [27]): 4.7%; AUC (Rattus norvegicus [28]): 5443.1 ugequiv/l.hr; Compound recovery (Plasma [29]): 5.8%; Compound recovery (Plasma [30]): 4.3%; AUC metabolite/AUC radiolabel (Homo sapiens [31]): 1.8%; AUC (Cynomolgus monkey [32]): 3272.2 ugequiv/l.hr; Compound recovery [33]: metabolite_detected
